Data on 20 molecules can be found in patent US12544382B2, “2, 4, 6-tri-substituted pyrimidine compound as ATR kinase inhibitor” (BEIJING TIDE PHARMACEUTICAL CO., LTD., priority 2019, dated 2026).

pIC50: −log10 of the molar value.

Data set [1] is described as follows: In vitro liver microsomal stability assay, mouse. Type of data set: in vitro ADME. Conditions: mouse liver microsomes, final concentration 2.0 nM, with or without NADPH, within 60 minutes; read-out: Mouse liver microsomes t1/2. As to the method: (§1) Experiments on the stability of the compound of the present disclosure in liver microsomes were performed. The compounds to be tested (final concentration: 2.0 nM) were co-incubated with human/mouse liver microsomes with or without NADPH, and the concentration of compounds in the incubation supernatant was detected within 60 minutes.

Another data set concerns the target ATR kinase (Homo sapiens (Human), UniProt Q13535). Kind of data set: ATR kinase activity assay (time-resolved fluorescence, p53 substrate phosphorylation). The data set is classed as biochemical. The method, then: Biotinylated protein derived from p53 (Eurofins, art. No.: 14-952) was phosphorylated with ATR kinase. The amount of phosphorylated protein was determined by time-resolved fluorescence in this assay. The amount of phosphorylated protein was detected by anti-p53-phospho-(serine 15)-K-specific antibody (Cisbio, art. No.: 61GSTDLA) and d2 labeled anti-GST antibody (Cisbio, art. No. 61P08KAE). Before the experiment, the following working solution was prepared as required: 1× reaction buffer (20 mM HEPES PH8.0, 1% glycerol, 0.01% Brij-35), dilution buffer (20 mM HEPES PH8.0, 1% glycerol, 0.01% Brij-35, 5 mM DTT and 1% BSA), stop solution (20 mM HEPES PH8.0, 1% glycerol, 0.01% Brij-35, 250 mM EDTA), detection buffer (50 mM HEPES pH7.0, 150 mM NaCl, 267 mM KF, 0.1% sodium cholate, 0.01% Tween-20, 0.0125% sodium azide). The reagents used above are purchased from Sigma or Invitrogen, except for those where the manufacturer was mentioned.
Operations are as follows:
4× gradient dilution of compound solutions was prepared with 1× reaction buffer to obtain 9 compound solutions of different concentrations, and 2.5 μL 4× gradient dilution of compound solutions was added to a 384-well analysis plate (784075, Greiner). 4× p53 substrate working solution (40 nM) was prepared with 1× reaction buffer, and 2.5 μL 4× p53 substrate working solution was added to the 384-well analysis plate. 4×ATR/ATRIP working solution (12.8 ng/μL) was prepared with dilution buffer, and 2.5 μL 4×pATR/ATRIP working solution was added to the 384-well analysis plate. 4×ATP working solution (2 mM) was prepared with deionized water, 2.5 μL 4×ATP working solution was added to the 384-well analysis plate, and incubated at room temperature in dark for 30 minutes. 5 μL stop solution was added to the 384 analysis plate. Finally, 5 μL test mixture (0.084 ng/μL Anti-phospho-p53(ser15)-K and 5 ng/μL Anti-GST-d2) was added to the 384 well analysis plate, incubated overnight at room temperature, and the fluorescence signal was detected with ENVISION (Perkinelmer) instrument (excitation wavelength: 320 nm, emission wavelength: 665 nm and 615 nm). The inhibition rate in each well was calculated by the fluorescence intensity value of each hole: ER (Emission Ratio)=(Fluorescence intensity at 665 nm/Fluorescence intensity at 615 nm); inhibition rate=(ER positive-ER test compound)/(ER positive-ER negative)×100%, the IC50 value of compounds were calculated by standard parameter fitting software (GraphPad Prism 6.0).

Data set [2] is described as follows: In vitro liver microsomal stability assay, human. Type of data set: in vitro ADME. Conditions: human liver microsomes, final concentration 2.0 nM, with or without NADPH, within 60 minutes; read-out: Human liver microsomes t1/2. The method, then:
as §1

The test system of the next data set is MV4-11 (leukemia) cells. Kind of data set: In vitro cell proliferation inhibition assay (CellTiter-Glo), MV4-11. The data set is classed as cell-based, human. Conditions: MV4-11 cells. As to the method:
(§2) By detecting the effect of compound on cell activity in vitro in the tumor cell lines TOV21G (ovarian cancer) and MV4-11 (leukemia), the effect of compound inhibiting cell proliferation was studied in this assay.
(§3) TOV21G cells and MV4-11 cells were purchased from American Type Culture Collection (ATCC).
MV-4-11 cells were cultured in IMDM medium (containing 20% FBS), each well of a 96-well culture plate was inoculated with about 10000 cells, and treated with different concentrations (0-10 μM) of compounds to be tested in triplex. Blank wells (containing medium only) and control wells (inoculated with cells but not treated with drug) were set. Cells were cultured for 120 hours, 40 μL Cell Titer-Glo solution was added to each well, incubated with shaking for 20 min in the dark, 100 μL solution was transferred from each well to a 96-well white plate, and the luminescence value was read by Biotek Synergy H1 multifunctional microplate reader. Inhibition rate (%)=100%×(control well−test well)/(control well−blank well)

In data set [3] the test system is TOV21G (ovarian cancer) cells. Nature of the data set: In vitro cell proliferation inhibition assay (CellTiter-Glo), TOV21G. The data set is classed as cell-based, human. Conditions: 120 hours. As to the method:
as §2, §3
TOV21G cells were cultured in MCDB105/M199 medium (containing 15% […]), and used for testing when the cell confluence reaches 85% or more. Each well of a 96-well culture plate was inoculated with about 1000 cells, cultured for 24 hours, and treated with different concentrations (0-10 μM) of compound solution to be tested in triplex. Blank wells (contains medium only) and control wells (seeded cells was not treated with drug) were set. Cells were cultured for 120 hours, 40 μL Cell Titer-Glo solution (Promega, #G7573) were added to each well, incubated with shaking for 20 min in the dark, 100 μL solution was transferred from each well to a 96-well white plate (Corning, #3917), and the luminescence value was read by Biotek Synergy H1 multifunctional microplate reader.

Data set [4] in a line: In vivo pharmacokinetics assay in mice. To be noted: mouse; male ICR mice, oral gavage 10 mg/kg, plasma. As to the method: The in vivo pharmacokinetics of the compounds was studied.
Male ICR mice (3 in each group) were orally administered by gavage with a dose of 10 mg/kg. Plasma samples were collected before (0 h) and after administration (0.25, 0.5, 1, 2, 4, 6, 8, 24 h), and the collected samples were analyzed by LC/MS and data were collected. The collected analytical data were used to calculate the relevant pharmacokinetic parameters by Analyst v1.6.2 (AB Applied Biosystems Company, USA).

Sequence of ATR kinase (Q13535 whole entry): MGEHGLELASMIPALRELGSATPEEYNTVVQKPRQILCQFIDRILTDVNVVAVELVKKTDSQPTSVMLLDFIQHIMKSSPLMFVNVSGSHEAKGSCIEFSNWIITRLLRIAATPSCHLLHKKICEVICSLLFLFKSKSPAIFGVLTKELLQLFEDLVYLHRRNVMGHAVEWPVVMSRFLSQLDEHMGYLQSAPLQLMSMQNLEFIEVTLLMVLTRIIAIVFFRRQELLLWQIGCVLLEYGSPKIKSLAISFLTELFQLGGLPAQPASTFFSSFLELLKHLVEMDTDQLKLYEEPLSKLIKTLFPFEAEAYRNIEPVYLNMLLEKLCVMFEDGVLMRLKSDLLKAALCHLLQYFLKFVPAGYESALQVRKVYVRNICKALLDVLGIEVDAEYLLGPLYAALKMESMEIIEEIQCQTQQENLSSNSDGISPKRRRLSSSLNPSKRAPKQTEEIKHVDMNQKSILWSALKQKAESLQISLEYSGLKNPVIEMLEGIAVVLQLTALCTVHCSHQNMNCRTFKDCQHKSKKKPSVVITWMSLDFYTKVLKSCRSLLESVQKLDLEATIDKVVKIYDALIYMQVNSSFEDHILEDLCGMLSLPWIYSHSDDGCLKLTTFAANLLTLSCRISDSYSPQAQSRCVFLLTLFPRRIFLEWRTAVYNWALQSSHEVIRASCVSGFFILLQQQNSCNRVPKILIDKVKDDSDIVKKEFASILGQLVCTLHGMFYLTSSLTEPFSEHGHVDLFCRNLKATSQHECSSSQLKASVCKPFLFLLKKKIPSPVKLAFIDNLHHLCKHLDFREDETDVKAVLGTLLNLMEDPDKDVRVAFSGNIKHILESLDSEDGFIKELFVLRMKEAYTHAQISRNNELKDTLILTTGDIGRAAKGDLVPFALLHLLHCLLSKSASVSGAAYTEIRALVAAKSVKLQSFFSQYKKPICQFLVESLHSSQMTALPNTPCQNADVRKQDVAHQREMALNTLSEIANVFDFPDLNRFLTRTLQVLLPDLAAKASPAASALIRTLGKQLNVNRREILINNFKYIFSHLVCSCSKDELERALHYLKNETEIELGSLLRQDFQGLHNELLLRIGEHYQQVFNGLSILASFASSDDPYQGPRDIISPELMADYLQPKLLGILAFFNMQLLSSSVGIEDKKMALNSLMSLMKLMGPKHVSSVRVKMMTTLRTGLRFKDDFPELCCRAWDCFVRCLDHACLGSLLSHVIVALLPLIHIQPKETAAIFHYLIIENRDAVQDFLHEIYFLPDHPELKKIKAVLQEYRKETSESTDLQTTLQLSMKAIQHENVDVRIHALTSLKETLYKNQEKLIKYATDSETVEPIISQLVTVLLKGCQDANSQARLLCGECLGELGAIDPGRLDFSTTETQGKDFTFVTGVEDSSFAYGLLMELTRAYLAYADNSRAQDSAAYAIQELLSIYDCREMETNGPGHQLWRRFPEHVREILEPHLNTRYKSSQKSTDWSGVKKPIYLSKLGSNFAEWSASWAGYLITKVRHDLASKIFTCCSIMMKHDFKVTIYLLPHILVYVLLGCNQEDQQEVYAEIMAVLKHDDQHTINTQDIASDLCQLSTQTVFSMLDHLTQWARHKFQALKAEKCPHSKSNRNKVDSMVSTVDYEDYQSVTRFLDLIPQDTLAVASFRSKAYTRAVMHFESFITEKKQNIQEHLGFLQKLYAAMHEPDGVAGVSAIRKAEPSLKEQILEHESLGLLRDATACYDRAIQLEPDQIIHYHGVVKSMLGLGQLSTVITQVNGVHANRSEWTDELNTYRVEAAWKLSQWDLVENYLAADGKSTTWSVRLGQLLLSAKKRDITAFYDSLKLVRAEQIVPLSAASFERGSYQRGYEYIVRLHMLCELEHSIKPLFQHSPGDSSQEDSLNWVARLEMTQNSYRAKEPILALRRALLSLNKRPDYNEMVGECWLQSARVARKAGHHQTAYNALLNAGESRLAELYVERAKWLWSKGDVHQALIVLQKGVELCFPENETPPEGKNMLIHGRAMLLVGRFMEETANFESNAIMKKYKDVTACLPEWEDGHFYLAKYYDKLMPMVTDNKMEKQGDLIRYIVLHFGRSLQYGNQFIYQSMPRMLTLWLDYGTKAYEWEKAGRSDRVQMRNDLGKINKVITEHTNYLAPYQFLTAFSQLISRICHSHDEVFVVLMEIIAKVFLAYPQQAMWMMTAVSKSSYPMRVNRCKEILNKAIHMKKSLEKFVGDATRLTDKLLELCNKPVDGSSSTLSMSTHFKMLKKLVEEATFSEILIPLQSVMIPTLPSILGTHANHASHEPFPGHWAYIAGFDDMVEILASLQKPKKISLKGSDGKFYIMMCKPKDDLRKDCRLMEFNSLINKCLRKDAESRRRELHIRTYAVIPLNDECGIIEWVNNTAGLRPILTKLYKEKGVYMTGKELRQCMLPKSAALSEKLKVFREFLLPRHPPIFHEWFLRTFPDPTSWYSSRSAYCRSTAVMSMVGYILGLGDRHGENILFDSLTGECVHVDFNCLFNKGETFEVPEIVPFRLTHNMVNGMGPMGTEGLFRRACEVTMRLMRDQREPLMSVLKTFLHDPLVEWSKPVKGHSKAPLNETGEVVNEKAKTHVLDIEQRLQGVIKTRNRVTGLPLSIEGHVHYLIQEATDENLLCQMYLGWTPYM
Sequence of ATR kinase (Q8WXE1 whole entry partner): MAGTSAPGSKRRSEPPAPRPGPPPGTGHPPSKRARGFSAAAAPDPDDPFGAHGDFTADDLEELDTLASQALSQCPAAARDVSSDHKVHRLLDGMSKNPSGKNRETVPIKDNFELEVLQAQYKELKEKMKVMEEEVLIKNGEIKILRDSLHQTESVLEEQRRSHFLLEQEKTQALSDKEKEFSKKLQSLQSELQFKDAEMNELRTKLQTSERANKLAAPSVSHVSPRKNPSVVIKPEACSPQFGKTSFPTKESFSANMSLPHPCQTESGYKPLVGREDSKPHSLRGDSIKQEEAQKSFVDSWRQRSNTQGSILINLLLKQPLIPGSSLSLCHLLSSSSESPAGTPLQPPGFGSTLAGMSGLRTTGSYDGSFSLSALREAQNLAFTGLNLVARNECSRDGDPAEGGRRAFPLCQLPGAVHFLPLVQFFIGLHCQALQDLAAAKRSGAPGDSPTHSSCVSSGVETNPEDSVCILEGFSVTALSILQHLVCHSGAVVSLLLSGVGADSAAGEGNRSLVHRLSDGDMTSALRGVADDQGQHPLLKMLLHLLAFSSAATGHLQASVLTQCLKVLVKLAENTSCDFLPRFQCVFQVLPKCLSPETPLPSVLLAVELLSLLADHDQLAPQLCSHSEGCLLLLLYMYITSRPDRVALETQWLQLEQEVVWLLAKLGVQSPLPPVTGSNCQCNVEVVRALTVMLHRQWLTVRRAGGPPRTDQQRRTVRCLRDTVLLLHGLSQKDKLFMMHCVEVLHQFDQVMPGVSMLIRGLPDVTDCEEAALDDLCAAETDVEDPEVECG

In the case of `Cc1nn(C2CCNCC2)c(C(F)(F)F)c1-c1cc(N2CCOC[C@H]2C)nc(-c2ccnc3[nH]ccc23)n1` [Compound D1], the half-life at 2 nM came to 1.03 h in data set [1] and 5.63 h in data set [2]. The pIC50 on ATR kinase is 8.30; in the data set on MV4-11 (leukemia) cells (Homo sapiens, MV4-11, 120 h), 6.92; in data set [3] (Homo sapiens), 6.59.
With `Cc1nn(C2CCNCC2)c(C(F)(F)F)c1-c1cc(N2CCOC[C@H]2C)nc(-c2cc(F)cc3[nH]ccc23)n1` [Compound D28], in data set [4], the AUC came to 2160 ng·h/mL, the maximum concentration (Cmax) turned out to be 199 ng/mL, the Tmax was 4.7 h and the half-life was 3.9 h. The pIC50 against ATR kinase is > 9.00. The pIC50 with MV4-11 (leukemia) cells (Homo sapiens, MV4-11, 120 h) is 6.64. In addition, the pIC50 in data set [3] (Homo sapiens) was 6.55.
For the molecule `CNc1nc2ncccc2n1-c1nc(-c2c(C)nn(C3CCNCC3)c2C(F)(F)F)cc(N2CCOC[C@H]2C)n1` [Compound D26], the figures for the negative logarithm of the IC50 (pIC50) (at ATR kinase; in the data set with MV4-11 (leukemia) cells (120 hours); in data set [3]) were 7.92, 5.51 and 5.45, respectively.
Consider `Cc1c(-c2cc(N3CCOC[C@H]3C)nc(-c3ccnc4[nH]ccc34)n2)c(C(F)(F)F)nn1C1CCCNC1` (single isomer, unassigned) [Compound D13], for which the pIC50 was > 9.00 against ATR kinase; 6.60 in the data set on MV4-11 (leukemia) cells (Homo sapiens, MV4-11, 120 h); 6.10 in data set [3] (Homo sapiens).
With `CNc1nc2ccccc2n1-c1nc(-c2c(C)nn(C3CCNCC3)c2C(F)(F)F)cc(N2CCOC[C@H]2C)n1` [Compound D24], in data set [4], the AUC turned out to be 5450 ng·h/mL, the peak level (Cmax) was 467 ng/mL, the Tmax came out at 5.3 h and the half-life was 3.1 h. In addition, the half-life at 2 nM in data set [1] turned out to be 1.83 h. Besides, the half-life at 2 nM in data set [2] came to 3.38 h. The pIC50 in the data set on MV4-11 (leukemia) cells (Homo sapiens, MV4-11, 120 h) was 7.10. Further, the pIC50 in data set [3] (Homo sapiens) is 6.92.
Consider `CNc1nc2ccccc2n1-c1nc(-c2c(C(F)(F)F)nn(C3CCCNC3)c2C)cc(N2CCOC[C@H]2C)n1` (stereo partly shown) [Compound D45], for which the pIC50 is 8.00 on ATR kinase, 6.19 with MV4-11 (leukemia) cells (120 hours) and 6.04 in data set [3].
As to `Cc1c(-c2cc(N3CCOC[C@H]3C)nc(-c3cccc4[nH]ccc34)n2)c(C(F)(F)F)nn1C1CCNCC1` [Compound D18], the pIC50 at ATR kinase is > 9.00; in the data set with MV4-11 (leukemia) cells (Homo sapiens, MV4-11, 120 h), 6.55; in data set [3] (Homo sapiens), 6.29.
For the molecule `Cc1nn(C2CCN(C)CC2)c(C)c1-c1cc(N2CCOC[C@H]2C)nc(-c2ccnc3[nH]ccc23)n1` [Compound D4], the pIC50 is 8.22 against ATR kinase, 6.72 in the data set with MV4-11 (leukemia) cells (120 hours) and 6.48 in data set [3].
Take `CNc1nc2cc(F)ccc2n1-c1nc(-c2c(C)nn(C3CCNCC3)c2C(F)(F)F)cc(N2CCOC[C@H]2C)n1` [Compound D10]: the pIC50 against ATR kinase is 8.52; in the data set with MV4-11 (leukemia) cells (Homo sapiens, MV4-11, 120 h), 6.48; in data set [3] (Homo sapiens), 6.42.
As to `CNc1nc2cc(F)ccc2n1-c1nc(-c2c(C)nn(CC3(C)COC3)c2C(F)(F)F)cc(N2CCOC[C@H]2C)n1` [Compound D51], the negative-log IC50 (pIC50) against ATR kinase is 7.49; in the data set with MV4-11 (leukemia) cells (120 hours) it was 6.18; in data set [3], 6.17.
For `Cc1nn(C2CCNCC2)c(C(F)(F)F)c1-c1nc(-c2ccnc3[nH]ccc23)nc(N2CCOC[C@H]2C)c1F` [Compound D11], the pIC50 was 8.10 on ATR kinase, 6.43 with MV4-11 (leukemia) cells (120 hours) and 6.19 in data set [3].
Regarding `CNc1nc2ccc(F)cc2n1-c1nc(-c2c(C)nn(C3CCNCC3)c2C(F)(F)F)cc(N2CCOC[C@H]2C)n1` [Compound D22], the pIC50 against ATR kinase is 7.80; in the data set with MV4-11 (leukemia) cells (Homo sapiens, MV4-11, 120 h), 6.04; in data set [3] (Homo sapiens), 6.07.
In the case of `COc1cc(-c2nc(-c3c(C)nn(C4CCNCC4)c3C(F)(F)F)cc(N3CCOC[C@H]3C)n2)c2cc[nH]c2n1` [Compound D3], the negative logarithm of the IC50 (pIC50) is 7.51 on ATR kinase, 6.54 in the data set on MV4-11 (leukemia) cells (120 hours) and 6.55 in data set [3].
On to `Cc1nn(C2CCNCC2)c(C(F)(F)F)c1-c1cc(N2CCOC[C@H]2C)nc(-n2c(N)nc3ccccc32)n1` [Compound D6], for which the negative-log IC50 (pIC50) is > 9.00 on ATR kinase; 6.77 in the data set on MV4-11 (leukemia) cells (Homo sapiens, MV4-11, 120 h); 6.62 in data set [3] (Homo sapiens).
Regarding `Cc1nn(C2CCNCC2(F)F)c(C)c1-c1cc(N2CCOC[C@H]2C)nc(-c2ccnc3[nH]ccc23)n1` (stereo partly shown) [Compound D57], the pIC50 at ATR kinase is 7.80; in the data set on MV4-11 (leukemia) cells (120 hours), 6.66; in data set [3] it was 6.39.
Turning to `CNc1nc2ccccc2n1-c1nc(-c2c(C(F)(F)F)nn(CS(C)(=O)=O)c2C)cc(N2CCOC[C@H]2C)n1` [Compound D44], the pIC50 at ATR kinase is 7.47; in the data set with MV4-11 (leukemia) cells (Homo sapiens, MV4-11, 120 h), 6.17; in data set [3] (Homo sapiens), 6.10.
Regarding `CNc1nc2cc(F)ccc2n1-c1nc(-c2c(C)nn(C3CCNCC3)c2C(F)(F)F)c(F)c(N2CCOC[C@H]2C)n1` [Compound D27], the pIC50 is 8.10 against ATR kinase, 6.01 with MV4-11 (leukemia) cells (120 hours) and 6.14 in data set [3].
Turning to `Cc1nn(C2CCNCC2)c(C(F)(F)F)c1-c1cc(N2CCOC[C@H]2C)nc(-c2cccc3[nH]ccc23)n1` [Compound D17], the results for the half-life at 2 nM in data set [1] and in data set [2] were 2.83 h and 5.05 h, respectively. Besides, the negative-log IC50 (pIC50) is 9.00 against ATR kinase; 6.85 in the data set with MV4-11 (leukemia) cells (Homo sapiens, MV4-11, 120 h); 6.64 in data set [3] (Homo sapiens).
Consider `CCNc1nc2cc(F)ccc2n1-c1nc(-c2c(C)nn(C3CCNCC3)c2C(F)(F)F)cc(N2CCOC[C@H]2C)n1` [Compound D23], for which the figures for the pIC50 (on ATR kinase; in the data set on MV4-11 (leukemia) cells (120 hours); in data set [3]) were 8.10, 6.16 and 6.24, respectively.
Regarding `CNc1nc2ccccc2n1-c1nc(-c2c(C)nn(CS(C)(=O)=O)c2C(F)(F)F)cc(N2CCOC[C@H]2C)n1` [Compound D43], the pIC50 against ATR kinase is 7.72; with MV4-11 (leukemia) cells (Homo sapiens, MV4-11, 120 h), 6.27; in data set [3] (Homo sapiens), 6.68.
